Experimental data from patent publication US7297704B2, “Cycloalkyfused indole, benzothiophene, benzofuran and idene derivatives” (Wyeth, priority 2005, dated 2007).
Structures can show the parent of a compound that is named as a salt.

What was measured:
Human 5-HT1A Receptor [1] = molecular target: T1, Human 5-HT1A Receptor (Homo sapiens, UniProt P08908); assay: 8-OH-DPAT binding, human 5-HT1A receptor cell line; details: stably transfected CHO cells, 8-OH-DPAT ligand 1.5 nM; read-out: h5-HT1A Affinity, Ki
T1 construct: expressed in transfected cells; host or cells: CHO cells
T1 sequence (P08908 1-422): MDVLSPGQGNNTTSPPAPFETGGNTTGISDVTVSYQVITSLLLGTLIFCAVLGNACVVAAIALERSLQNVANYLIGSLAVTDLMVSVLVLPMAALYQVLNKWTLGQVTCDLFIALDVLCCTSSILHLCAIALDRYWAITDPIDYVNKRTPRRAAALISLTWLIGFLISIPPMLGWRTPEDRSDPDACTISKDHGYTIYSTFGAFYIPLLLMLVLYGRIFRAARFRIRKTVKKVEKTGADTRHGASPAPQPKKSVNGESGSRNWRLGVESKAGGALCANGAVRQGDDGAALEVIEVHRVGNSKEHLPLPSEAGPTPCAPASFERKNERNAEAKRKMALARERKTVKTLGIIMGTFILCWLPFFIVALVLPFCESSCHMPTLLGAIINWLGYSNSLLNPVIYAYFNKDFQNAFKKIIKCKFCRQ
Experimental: Stably transfected CHO cells were grown in DMEM containing 10% heat inactivated FBS and non-essential amino acids. Cells were scraped off the plate, transferred to centrifuge tubes, and washed twice by centrifugation (2000 rpm for 10 min., 4° C.) in buffer (50 mM Tris, pH 7.5). The resulting pellets were aliquoted and placed at −80° C. On day of assay, the cells were thawed on ice, and resuspended in buffer. The binding assay was performed in a 96 well microtiter plate in a total volume of […]. Non-specific binding was determined in the presence of […] 5HT; final ligand concentration was 1.5 nM. Following a 30 min. incubation at room temperature, the reaction was terminated by the addition of ice cold buffer and rapid filtration through a GF/B filter presoaked for 30 min. in 0.5% PEI. Compounds were initially tested in a single point assay to determine percent inhibition at […]. Subsequently, Ki values were determined for compounds defined to be active. Percent inhibition Ki was determined by RFComp (Lundon Software), with Serotonin 8-OH-DPAT as the reference compounds.

Human 5-HT1A Receptor [2] = molecular target: T1, Human 5-HT1A Receptor; assay: cAMP RIA in human 5-HT1A receptor cell line; assay type: cell-based; details: superscript b; reversal of agonist activity, CHO cells; read-out: c-AMP, (IC50)^b
Experimental: Stably transfected CHO cells were grown in DMEM containing 10% heat inactivated FBS and non-essential amino acids. The cells were plated at a density of 10^6 cells per well in a 96 well plate and incubated for 2 days in a CO2 incubator. On the second day, the media was replaced with 0.1 ml Krebs and incubated 15 minutes at 37° C. The media was then replaced with Krebs buffer containing 500 uM IBMX and incubated 5 minutes at 37° C. Wells were treated with forskolin (1 uM final conc) followed immediately by test compound (0.1 and 1 uM for initial screen) and incubated for an additional 10 min at 37° C. Reaction was terminated by removal of the media and addition of 0.5 ml ice cold assay buffer (supplied in RIA kit). Plates are stored at −20° C. prior to assessment of cAMP formation by RIA. Compounds shown to have no agonist activities were further analyzed for ability to reverse agonist activity. In separate experiments, 6 concentrations of antagonist were preincubated for 20 min prior to the addition of agonist and forskolin. Cells were harvested as described. The cAMP kit is supplied by Amersham and the RIA is performed as per kit instructions. In the initial screen, percent inhibition of forskolin stimulated cAMP was measured. In the secondary screen, IC50 of reversal of agonist activity was measured. Calculations of IC50 were performed by GraphPad Prism. Serotonin, BMY 7378, Buspirone, and 8-OH-DPAT were used as reference compounds.

serotonin transporter = molecular target: T2, serotonin transporter (Rattus norvegicus, UniProt P31652); assay: 3H-paroxetine binding to the serotonin transporter, rat frontal cortical membranes; details: values printed in parentheses, 3H-paroxetine 0.1 nM, read-out: rb-5-HH-T, (IC50)
T2 construct: frontal cortical membranes prepared from male S.D. rats; from tissue; host or cells: rat frontal cortex membranes (male Sprague-Dawley)
T2 sequence (P31652 whole entry): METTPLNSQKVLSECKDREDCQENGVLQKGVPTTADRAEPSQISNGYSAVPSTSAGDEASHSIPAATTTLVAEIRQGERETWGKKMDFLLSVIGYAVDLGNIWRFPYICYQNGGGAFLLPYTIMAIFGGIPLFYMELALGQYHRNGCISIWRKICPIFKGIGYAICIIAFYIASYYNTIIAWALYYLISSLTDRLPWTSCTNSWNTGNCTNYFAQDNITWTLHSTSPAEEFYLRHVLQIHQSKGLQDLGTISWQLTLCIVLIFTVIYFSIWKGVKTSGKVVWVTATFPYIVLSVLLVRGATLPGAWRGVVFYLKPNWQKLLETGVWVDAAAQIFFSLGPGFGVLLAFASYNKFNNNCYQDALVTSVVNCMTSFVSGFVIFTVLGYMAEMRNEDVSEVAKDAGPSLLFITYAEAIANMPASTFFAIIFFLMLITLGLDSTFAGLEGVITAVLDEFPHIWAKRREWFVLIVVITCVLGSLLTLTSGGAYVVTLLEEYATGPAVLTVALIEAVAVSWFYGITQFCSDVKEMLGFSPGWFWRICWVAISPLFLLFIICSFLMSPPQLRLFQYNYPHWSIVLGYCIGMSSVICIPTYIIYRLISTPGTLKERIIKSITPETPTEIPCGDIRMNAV
Experimental: A protocol similar to that used by Cheetham et al. (Neuropharmacol. 32:737, 1993) was used to determine the affinity of compounds for the serotonin transporter. Briefly, frontal cortical membranes prepared from male S.D. rats were incubated with ^3H-paroxetine (0.1 nM) for 60 min at 25° C. All tubes also contained either vehicle, test compound (one to eight concentrations), or a saturating concentration of fluoxetine (10 μM) to define […]. All reactions are terminated by the addition of ice cold Tris buffer followed by rapid filtration using a Tom Tech filtration device to separate bound from free ^3H-paroxetine. Bound radioactivity was quantitated using a Wallac 1205 Beta Plate® counter. Nonlinear regression analysis was used to determine IC50 values which were converted to Ki values using the method of Cheng and Prusoff (Biochem. Pharmacol. 22: 3099, 1973); […].

Compound	Ki (Human 5-HT1A Receptor [1])	IC50 (Human 5-HT1A Receptor [2])	IC50 (serotonin transporter)	melting point
Cc1ccc2c3c(ccc2n1)OC[C@H](CN(C[C@H]1CCc2[nH]c4ccc(F)cc4c2C1)C1CCCCC1)O3.Cl.O (hydrate or solvate) [Example 64, N-{[(3S)-6-Fluoro-2,3,4,9-tetrahydro-1H-carbazol-3-yl]methyl}-N-{[(2S)-8-methyl-2,3-dihydro[1,4]dioxino[2,3-f]quinolin-2-yl]methyl}cyclohexanamine monohydrochloride monohydrate]				202 to 208 °C
Cc1ccc2c3c(ccc2n1)OC[C@H](CN(C)C[C@@H]1CCc2c(c4cc(F)ccc4n2C)C1)O3.Cl.O (hydrate or solvate) [Example 69, {[(3R)-6-Fluoro-9-methyl-2,3,4,9-tetrahydro-1H-carbazol-3-yl]methyl}methyl{[(2S)-8-methyl-2,3-dihydro[1,4]dioxino[2,3-f]quinolin-2-yl]methyl}amine monohydrochloride monohydrate]				244 to 256 °C
Cc1ccc2c3c(ccc2n1)OC[C@H](CN(CC1CC1)CC1CCc2[nH]c4ccc(F)cc4c2C1)O3.Cl.Cl.O.O (stereo partly drawn) (hydrate or solvate) [Example 52, (Cyclopropylmethyl)[(6-fluoro-2,3,4,9-tetrahydro-1H-carbazol-3-yl)methyl]{[(2S)-8-methyl-2,3-dihydro[1,4]dioxino[2,3-f]quinolin-2-yl]methyl}amine dihydrochloride dihydrate]				215 to 230 °C
Cc1ccc2c3c(ccc2n1)OC[C@H](CN(CC1CCc2[nH]c4ccc(F)cc4c2C1)C1CCC1)O3.Cl.Cl.O.O (stereo partly drawn) (hydrate or solvate) [Example 53, N-[(6-Fluoro-2,3,4,9-tetrahydro-1H-carbazol-3-yl)methyl]-N-{[(2S)-8-methyl-2,3-dihydro[1,4]dioxino[2,3-f]quinolin-2-yl]methyl}cyclobutanamine dihydrochloride dihydrate]				220 to 235 °C
Cc1ccc2c3c(ccc2n1)OC[C@H](CN(C[C@@H]1CCc2[nH]c4ccc(F)cc4c2C1)C1CCCCC1)O3.Cl.O (hydrate or solvate) [Example 60, N-{[(3R)-6-fluoro-2,3,4,9-tetrahydro-1H-carbazol-3-yl]methyl}-N-{[(2S)-8-methyl-2,3-dihydro[1,4]dioxino[2,3-f]quinolin-2-yl]methyl}cyclohexanamine monohydrochloride monohydrate]				207 to 218 °C
Cc1ccc2c3c(ccc2n1)OC[C@H](CN(C[C@@H]1CCc2[nH]c4ccc(F)cc4c2C1)C1CCC1)O3.Cl.Cl.O.O (hydrate or solvate) [Example 56, N-{[(3R)-6-Fluoro-2,3,4,9-tetrahydro-1H-carbazol-3-yl]methyl}-N-{[(2S)-8-methyl-2,3-dihydro[1,4]dioxino[2,3-f]quinolin-2-yl]methyl}cyclobutanamine dihydrochloride dihydrate]				215 to 230 °C
CCC(C)N(C[C@H]1CCc2[nH]c3ccc(F)cc3c2C1)C[C@H]1COc2ccc3nc(C)ccc3c2O1.Cl.O (stereo partly drawn) (hydrate or solvate) [Example 62, N-{[(3S)-6-Fluoro-2,3,4,9-tetrahydro-1H-carbazol-3-yl]methyl}-N-{[(2S)-8-methyl-2,3-dihydro[1,4]dioxino[2,3-f]quinolin-2-yl]methyl}butan-2-amine monohydrochloride monohydrate]				246 to 257 °C
Cc1ccc2c3c(ccc2n1)OCC(CN(CC1CCc2c(c4cc(F)ccc4n2C)C1)C(C)C)O3 (as salt: hydrochloride) (hydrate or solvate) [Example 65, N-[(6-Fluoro-9-methyl-2,3,4,9-tetrahydro-1H-carbazol-3-yl)methyl]-N-([(2S)-8-methyl-2,3-dihydro[1,4]dioxino[2,3-f]quinolin-2-yl]methylpropan-2-aminemonohydrochloride monohydrate]				201 to 222 °C
Cc1ccc2c3c(ccc2n1)OC[C@H](CNC[C@@H]1CCc2[nH]c4ccc(F)cc4c2C1)O3 (as salt: hydrochloride) [Example 5, N-{[(3R)-6-fluoro-2,3,4,9-tetrahydro-1H-carbazol-3-yl]methyl}-N-{[(2S)-8-methyl-2,3-dihydro[1,4]dioxino[2,3-f]quinolin-2-yl]methyl}amine]				229 to 236 °C
Cc1ccc2c3c(ccc2n1)OC[C@H](CN(C[C@@H]1CCc2[nH]c4ccc(F)cc4c2C1)C(C)C)O3.Cl.O (hydrate or solvate) [Example 57, N-{[(3R)-6-Fluoro-2,3,4,9-tetrahydro-1H-carbazol-3-yl]methyl}-N-{[(2S)-8-methyl-2,3-dihydro[1,4]dioxino[2,3-f]quinolin-2-yl]methyl}propan-2-amine monohydrochloride monohydrate]				230 to 243 °C
Cc1ccc2c3c(ccc2n1)OC[C@H](CN(C[C@H]1CCc2[nH]c4ccc(F)cc4c2C1)C1CCCC1)O3.Cl.O (hydrate or solvate) [Example 63, N-{[(3S)-6-Fluoro-2,3,4,9-tetrahydro-1H-carbazol-3-yl]methyl}-N-{[(2S)-8-methyl-2,3-dihydro[1,4]dioxino[2,3-f]quinolin-2-yl]methyl}cyclopentanamine monohydrochloride monohydrate]				237 to 254 °C

The next lines start with results.

Ki (Human 5-HT1A Receptor [1])	IC50 (Human 5-HT1A Receptor [2])	IC50 (serotonin transporter)	Compound	melting point
2.03 nM	144 nM	2.56 nM	Cc1ccc2c3c(ccc2n1)OC[C@H](CNC[C@@H]1CCc2[nH]c4ccc(F)cc4c2C1)O3 [Example 5, N-{[(3R)-6-fluoro-2,3,4,9-tetrahydro-1H-carbazol-3-yl]methyl}-N-{[(2S)-8-methyl-2,3-dihydro[1,4]dioxino[2,3-f]quinolin-2-yl]methyl}amine]	
0.34 nM	78.5 nM	7.74 nM	Cc1ccc2c3c(ccc2n1)OC[C@H](CNC[C@H]1CCc2c(c4cc(F)ccc4n2C)C1)O3 [Example 7]	
1.26 nM	79 nM	6.61 nM	Cc1ccc2c3c(ccc2n1)OC[C@H](CNC[C@H]1CCc2[nH]c4ccc(F)cc4c2C1)O3 [Example 3, S,S-(6-Fluoro-2,3,4,9-tetrahydro-1H-carbazol-3-ylmethyl)-(8-methyl-2,3-dihydro-[1,4]dioxino[2,3-f]quinolin-2-ylmethyl)-amine]	
2.5 nM	39.4 nM	3.1 nM	Cc1ccc2c3c(ccc2n1)OC[C@H](CNC[C@@H]1CCc2c(c4cc(F)ccc4n2C)C1)O3 [Example 8, N-{[(3R)-6-fluoro-9-methyl-2,3,4,9-tetrahydro-1H-carbazol-3-yl]methyl}-N-{[(2S)-8-methyl-2,3-dihydro[1,4]dioxino[2,3-f]quinolin-2-yl]methyl}amine]	
